Measured values published in EP3046573B1, “AMYLIN ANALOGUES” (Zealand Pharma A/S, priority 2013, dated 2015).
Numbered stars: 1 amine (or outer) side, 2 acyl side, 3 side chain; on linkers, the order of the positions; unused ones are H or OH. Bridge positions count the residues as written; N and C are the ends. Square brackets hold non-standard residues; d marks the D form. Peptide text beside a SMILES is read from it. * marks the point of attachment. C20 diacid = O=C(O)CCCCCCCCCCCCCCCCCCC(=O)*; γGlu = O=C(O)[C@H](CCC(=O)[*:2])N[*:1]; Hyp = O=C(O)[C@@H]1C[C@@H](O)CN1; NMeI = CC[C@H](C)[C@H](NC)C(=O)O; Sar = CNCC(=O)O

Key:
[1] = molecular target: T1, human calcitonin receptor (hCTR2) (Homo sapiens, UniProt P30988); assay: hCTR2 assay: induction of cAMP (AlphaScreen cAMP Assay kit) in COS7 cells expressing hCTR2; format: cell-based; settings: cAMP induction in COS7 cells expressing hCTR2; average of a minimum of 3 determinations; read-out: hCTR2 EC50
T1 construct: expressed in transfected cells
T1 sequence (P30988 25-474): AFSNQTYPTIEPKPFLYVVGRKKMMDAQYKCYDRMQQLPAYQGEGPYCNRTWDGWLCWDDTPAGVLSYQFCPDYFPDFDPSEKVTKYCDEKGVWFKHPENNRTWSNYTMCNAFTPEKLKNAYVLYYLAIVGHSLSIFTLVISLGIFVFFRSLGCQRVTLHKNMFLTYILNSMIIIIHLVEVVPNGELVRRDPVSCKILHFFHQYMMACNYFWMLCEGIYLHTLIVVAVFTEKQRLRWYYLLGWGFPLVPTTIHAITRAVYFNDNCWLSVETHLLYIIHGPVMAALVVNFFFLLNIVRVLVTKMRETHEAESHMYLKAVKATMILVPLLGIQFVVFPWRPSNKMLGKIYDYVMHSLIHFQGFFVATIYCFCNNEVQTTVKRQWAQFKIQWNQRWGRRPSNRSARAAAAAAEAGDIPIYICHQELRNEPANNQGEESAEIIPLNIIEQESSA
In short: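 Functional agonism is measured as cAMP accumulation in a COS7 line stably transfected with hCTR2, lacking endogenous RAMPs. Peptides act for 15 min at 37° C with IBMX present, and curves are fitted with a 4-parameter logistic model.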

[2] = molecular target: T2, human amylin receptor 3 (hAMYR3) consisting of hCTR2 co-expressed with human Receptor Activity Modifying Protein 3 (hRAMP3) (Homo sapiens, UniProt O60896+P30988); assay: hAMYR3 assay: induction of cAMP (AlphaScreen cAMP Assay kit) in COS7 cells expressing hAMYR3; format: cell-based; settings: cAMP induction in COS7 cells expressing hAMYR3; average of a minimum of 3 determinations; read-out: hAMY R3 EC50
T2 construct: expressed in transfected cells
T2 sequence (P30988 25-474): T1 sequence (P30988 25-474)
T2 sequence (O60896 24-148 partner): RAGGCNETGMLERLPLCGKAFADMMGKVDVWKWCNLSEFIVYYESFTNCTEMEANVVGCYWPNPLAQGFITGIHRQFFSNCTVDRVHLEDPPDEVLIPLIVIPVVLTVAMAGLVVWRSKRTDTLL
In short: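 Stable COS7 clone co-expressing hCTR2 and hRAMP3, stimulated 15 min at 37° C with increasing peptide in Tyrode buffer pH 7.4 with 100 µM IBMX and 0.1% casein. cAMP measured by AlphaScreen after lysis; EC50 and % efficacy versus pramlintide from 4PL fit.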

[3] = Solubility assessment (turbidity absorbance at 325 nm); format: physicochemical; settings: stock 2 mg/ml diluted 1:1, ambient temperature (typically 25°C), n=1; for Solubility, Acetate buffer pH 4: 100 mM acetate buffer pH 4.0; for Solubility, Acetate buffer pH 5: 100 mM acetate buffer pH 5.0; for Solubility, Histidine buffer pH 6: 100 mM histidine buffer pH 6.0; for Solubility, Histidine buffer pH 7: 100 mM histidine buffer pH 7.0; for Solubility, Phosphate buffer pH 6: 100 mM phosphate buffer pH 6.0; for Solubility, Phosphate buffer pH 7: 100 mM phosphate buffer pH 7.0; for Solubility, Phosphate buffer pH 7.5: 100 mM phosphate buffer pH7.5
In short: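 Stock 2 mg/ml peptide, H2O/HCl pH 2.5; 1:1 into 100 mM buffers: acetate pH 4.0/5.0, His pH 6.0/7.0, phosphate pH 6.0/7.0/7.5. A280 + A325, ~25°C, n=1. Soluble ≥ 1 mg/ml if A325 ≤ 0.02.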

| SMILES | EC50 [1] | EC50 [2] | Solubility, Acetate buffer pH 4 [3] | Solubility, Acetate buffer pH 5 [3] | Solubility, Histidine buffer pH 6 [3] | Solubility, Histidine buffer pH 7 [3] | Solubility, Phosphate buffer pH 6 [3] | Solubility, Phosphate buffer pH 7 [3] | Solubility, Phosphate buffer pH 7.5 [3] |
| --- | --- | --- | --- | --- | --- | --- | --- | --- | --- |
| CC[C@H](C)[C@@H](C(=O)N[C@@H](CC(C)C)C(=O)N[C@@H](CO)C(=O)N[C@@H](CO)C(=O)N[C@H](C(=O)N[C@@H](CCC(=O)O)C(=O)N[C@H](C(=O)NCC(=O)N[C@@H](CO)C(=O)N[C@@H](CCC(=O)O)C(=O)N[C@H](C(=O)N1CCC[C@H]1C(N)=O)[C@@H](C)O)C(C)C)[C@@H](C)O)N(C)C(=O)[C@H](C)NC(=O)CN(C)C(=O)[C@H](Cc1ccccc1)NC(=O)[C@H](CO)NC(=O)[C@H](CO)NC(=O)[C@H](CO)NC(=O)[C@H](CO)NC(=O)[C@H](CCCNC(=N)N)NC(=O)[C@H](Cc1c[nH]cn1)NC(=O)[C@H](CC(C)C)NC(=O)[C@H](Cc1ccccc1)NC(=O)[C@H](CCC(=O)O)NC(=O)[C@H](C)NC(=O)[C@H](CC(C)C)NC(=O)[C@H](CCCNC(=N)N)NC(=O)[C@H](CO)NC(=O)[C@@H](NC(=O)[C@H](C)NC(=O)[C@@H]1CSSC[C@H](NC(=O)[C@H](CCCNC(=N)N)NC(=O)CC[C@H](NC(=O)CCCCCCCCCCCCCCCCCCC(=O)O)C(=O)O)C(=O)N[C@@H](CCC(=O)O)C(=O)N[C@@H]([C@@H](C)O)C(=O)N[C@@H](C)C(=O)N[C@@H]([C@@H](C)O)C(=O)N1)[C@@H](C)O [Compound 139, [19CD]-isoGlu-RC()ETATC()ATSRLAEFLHRSSSSF-Gly(Me)-A-Ile(Me)-LSSTEVGSETP-NH2] ({C20 diacid-γGlu}-RCETATCATSRLAEFLHRSSSSF[Sar]A[NMeI]LSSTEVGSETP-NH2; disulfide 2-7) | 0.15 nM | 0.35 nM | SS (SS indicates solubility ≥ 1mg/ml) | SS (SS indicates solubility ≥ 1mg/ml) | SS (SS indicates solubility ≥ 1mg/ml) | SS (SS indicates solubility ≥ 1mg/ml) | SS (SS indicates solubility ≥ 1mg/ml) | SS (SS indicates solubility ≥ 1mg/ml) | SS (SS indicates solubility ≥ 1mg/ml) |
| CC[C@H](C)[C@@H](C(=O)N[C@@H](CC(C)C)C(=O)N[C@@H](CO)C(=O)N[C@@H](CO)C(=O)N[C@H](C(=O)N[C@@H](CCC(=O)O)C(=O)N[C@H](C(=O)NCC(=O)N[C@@H](CO)C(=O)N[C@@H](CCC(=O)O)C(=O)N[C@H](C(=O)N1C[C@H](O)C[C@H]1C(N)=O)[C@@H](C)O)C(C)C)[C@@H](C)O)N(C)C(=O)[C@H](C)NC(=O)CN(C)C(=O)[C@H](Cc1ccccc1)NC(=O)[C@H](CO)NC(=O)[C@H](CO)NC(=O)[C@H](CO)NC(=O)[C@H](CO)NC(=O)[C@H](CCCNC(=N)N)NC(=O)[C@H](Cc1c[nH]cn1)NC(=O)[C@H](CC(C)C)NC(=O)[C@H](Cc1ccccc1)NC(=O)[C@H](CCC(=O)O)NC(=O)[C@H](C)NC(=O)[C@H](CC(C)C)NC(=O)[C@H](CCCNC(=N)N)NC(=O)[C@H](CCC(=O)O)NC(=O)[C@@H](NC(=O)[C@H](C)NC(=O)[C@@H]1CSSC[C@H](NC(=O)[C@H](CCCCN)NC(=O)[C@H](CCCCN)NC(=O)CC[C@H](NC(=O)CCCCCCCCCCCCCCCCCCC(=O)O)C(=O)O)C(=O)N[C@@H](CCC(=O)O)C(=O)N[C@@H]([C@@H](C)O)C(=O)N[C@@H](C)C(=O)N[C@@H]([C@@H](C)O)C(=O)N1)[C@@H](C)O [Compound 168, [19CD]-isoGlu-KKC()ETATC()ATERLAEFLHRSSSSF-Gly(Me)-A-Ile(Me)-LSSTEVGSET-Hyp-NH2] ({C20 diacid-γGlu}-KKCETATCATERLAEFLHRSSSSF[Sar]A[NMeI]LSSTEVGSET[Hyp]-NH2; disulfide 3-8) | 0.57 nM | 0.7 nM | SS (SS indicates solubility ≥ 1mg/ml) | II (II indicates solubility ≤ 1 mg/ml) | SS (SS indicates solubility ≥ 1mg/ml) | SS (SS indicates solubility ≥ 1mg/ml) | SS (SS indicates solubility ≥ 1mg/ml) | SS (SS indicates solubility ≥ 1mg/ml) | SS (SS indicates solubility ≥ 1mg/ml) |
| CC[C@H](C)[C@@H](C(=O)N[C@@H](CC(C)C)C(=O)N[C@@H](CO)C(=O)N[C@@H](CO)C(=O)N[C@H](C(=O)N[C@@H](CCC(=O)O)C(=O)N[C@H](C(=O)NCC(=O)N[C@@H](CO)C(=O)N[C@@H](CCC(=O)O)C(=O)N[C@H](C(=O)N1C[C@H](O)C[C@H]1C(N)=O)[C@@H](C)O)C(C)C)[C@@H](C)O)N(C)C(=O)CN(C)C(=O)[C@H](Cc1ccccc1)NC(=O)[C@H](CO)NC(=O)[C@H](CO)NC(=O)[C@H](CCCNC(=N)N)NC(=O)[C@H](Cc1c[nH]cn1)NC(=O)[C@H](CC(C)C)NC(=O)[C@H](Cc1ccccc1)NC(=O)[C@H](CCC(=O)O)NC(=O)[C@H](C)NC(=O)[C@H](CC(C)C)NC(=O)[C@H](CCCNC(=N)N)NC(=O)[C@H](CCC(=O)O)NC(=O)[C@@H](NC(=O)[C@H](C)NC(=O)[C@@H]1CSSC[C@H](NC(=O)[C@H](Cc2c[nH]c3ccccc23)NC(=O)CC[C@H](NC(=O)CCCCCCCCCCCCCCCCCCC(=O)O)C(=O)O)C(=O)NCC(=O)N[C@@H]([C@@H](C)O)C(=O)N[C@@H](C)C(=O)N[C@@H]([C@@H](C)O)C(=O)N1)[C@@H](C)O [Compound 165, [19CD]-isoGlu-WC()GTATC()ATERLAEFLHRSSF-Gly(Me)-Ile(Me)-LSSTEVGSET-Hyp-NH2] ({C20 diacid-γGlu}-WCGTATCATERLAEFLHRSSF[Sar][NMeI]LSSTEVGSET[Hyp]-NH2; disulfide 2-7) | 0.11 nM | 0.27 nM | SS (SS indicates solubility ≥ 1mg/ml) | SS (SS indicates solubility ≥ 1mg/ml) | SS (SS indicates solubility ≥ 1mg/ml) | SS (SS indicates solubility ≥ 1mg/ml) | SS (SS indicates solubility ≥ 1mg/ml) | II (II indicates solubility ≤ 1 mg/ml) | SS (SS indicates solubility ≥ 1mg/ml) |
| CC[C@H](C)[C@@H](C(=O)N[C@@H](CC(C)C)C(=O)N[C@@H](CO)C(=O)N[C@@H](CO)C(=O)N[C@H](C(=O)N[C@@H](CCC(=O)O)C(=O)N[C@H](C(=O)NCC(=O)N[C@@H](CO)C(=O)N[C@@H](CCC(=O)O)C(=O)N[C@H](C(=O)N1CCC[C@H]1C(N)=O)[C@@H](C)O)C(C)C)[C@@H](C)O)N(C)C(=O)[C@H](C)NC(=O)CN(C)C(=O)[C@H](Cc1ccccc1)NC(=O)[C@H](CO)NC(=O)[C@H](CO)NC(=O)[C@H](CO)NC(=O)[C@H](CO)NC(=O)[C@H](CCCNC(=N)N)NC(=O)[C@H](Cc1c[nH]cn1)NC(=O)[C@H](CC(C)C)NC(=O)[C@H](Cc1ccccc1)NC(=O)[C@H](CCC(=O)O)NC(=O)[C@H](C)NC(=O)[C@H](CC(C)C)NC(=O)[C@H](CCCNC(=N)N)NC(=O)[C@H](CC(C)C)NC(=O)[C@@H](NC(=O)[C@H](C)NC(=O)[C@@H]1CSSC[C@H](NC(=O)[C@H](CCCNC(=N)N)NC(=O)CC[C@H](NC(=O)CCCCCCCCCCCCCCCCCCC(=O)O)C(=O)O)C(=O)N[C@@H](CC(N)=O)C(=O)N[C@@H]([C@@H](C)O)C(=O)N[C@@H](C)C(=O)N[C@@H]([C@@H](C)O)C(=O)N1)[C@@H](C)O [Compound 121, [19CD]-isoGlu-RC()NTATC()ATLRLAEFLHRSSSSF-Gly(Me)-A-Ile(Me)-LSSTEVGSETP-NH2] ({C20 diacid-γGlu}-RCNTATCATLRLAEFLHRSSSSF[Sar]A[NMeI]LSSTEVGSETP-NH2; disulfide 2-7) | 0.15 nM | 0.3 nM | SS (SS indicates solubility ≥ 1mg/ml) | SS (SS indicates solubility ≥ 1mg/ml) | II (II indicates solubility ≤ 1 mg/ml) | SS (SS indicates solubility ≥ 1mg/ml) | SS (SS indicates solubility ≥ 1mg/ml) | II (II indicates solubility ≤ 1 mg/ml) | SS (SS indicates solubility ≥ 1mg/ml) |
